Columns and labels:
Type in all cases: cell-based, mouse
satellite cell divisions = experiment: FDB myofiber screening method validation (YFP(-) divisions); settings: for percentage of YFP(-) divisions that were symmetric divisions: control 62% (Wnt7a experiment), control 45% (EGF / PTP1b experiment); for percentage of YFP(-) divisions that were asymmetric divisions: control treated cells 55%
Text: EGFR pathway activators may be identified in a method of screening potential activators. The method includes visualizing isolated, cultured, and stained Flexor Digitorum Brevis (FDB) myofibers from Myf5-Cre/ROSA26-YFP mice in a plurality of Z-stack planes to create a projection image. Muscle satellite cells are identified in the projection image based on Pax7 expression. Of the identified muscle satellite cells: (i) satellite stem cells are identified based on the absence of YFP expression, and (ii) committed satellite progenitor cells are identified based on yellow fluorescence protein (YFP) expression. A potential EGFR pathway activator is administered to the FDB myofibers. The number of symmetric divisions of satellite myogenic cells, identified by the production of two YFP(+) satellite cells, are counted; the number of symmetric satellite stem cell divisions, identified by the production of two YFP(−) satellite cells, are counted; and the number of asymmetric satellite cell divisions, identified by the production of one YFP(+) and one YFP(−) satellite cell, are counted. The potential EGFR pathway activator is identified as an EGFR pathway activator when the percent of YFP(−) divisions that are asymmetric divisions is greater than the corresponding percent in a control sample. The expression “YFP(−) divisions” refers to all cell divisions where one of the daughter cells is YFP(−).
Identification of EGFR pathway activators. Flexor Digitorum brevis (FDB) fibers were isolated from Myf5-Cre/Rosa-YFP mice and digested in 0.25% Collagenase Type I (Sigma) in DMEM (Dulbecco's modified Eagle's medium; high glucose, L-glutamine with 110 mg/ml sodium pyruvate) for 2.5-3 h. Myofibers were dissociated using gentle trituration with a glass pipette.
Myofibers are cultured at 37° C., 5% CO2 for 42 h in myofiber culture media (DMEM supplemented with 20% FBS(Wisent), 1% Chicken Embryo extract (MP Biomediacals), 1% Penicillin/Streptomycin (Cederlane) and 2.5 ng/ml basic Fibroblast Growth Factor (Cedarlane).
Myofibers are first fixed in 2% Paraformaldehyde (PFA) for 5 mins. Myofibers are blocked for 1-2 h in 1% Bovine Serum Albumin, 0.5% TritonX-100, 5% HS and 0.01% Sodium Azide. Primary antibodies are applied in blocking solution for 2 h at room temperature or at 4° C. overnight. Myofibers are washed with PBS and stained with appropriate fluorescently labeled secondary antibodies (Alexa Fluor 488, 546) for 1 hat room temperature. Following washing with PBS, fiber nuclei are stained with DAPI for 5 min. The following antibodies are used: mouse anti-Pax7 (Developmental Studies Hybridoma Bank (DSHB)), chicken anti-GFP (cat. no. ab13970, Abcam).
Satellite cells are focused based on Channel 3 (DAPI) staining. Autofocus is performed by sampling seven (7) z-stacks taken at […] intervals for an extended depth of field of 85.3 μm.
Z-stack images were consolidated to create a projection image with all satellite cells in focus. Image acquisition of a projection image for analysis was created from seven (7) Z-stack images taken at 6.5 μm intervals, for an extended depth of field of 45.5 μm at 200 (Objective 20×) magnification. The projection direction was centered, where the median stacks fall within the center of each myofiber. […]
Potential satellite cells were first identified based on Channel 1 (Pax7) signal, and separated from other satellite cells based on intensity of fluorescence between cells. […]

mdx satellite cells = experiment: Mitotic orientation by p-Aurk staining, mdx myofibers 36 h; settings: 36 h culture, recombinant EGF vs vehicle, FIG. 3B
Method: However, the rate of abnormal cell divisions in mdx satellite cells as evidenced by abnormal patterns of p-Aurk staining was unaffected by EGF stimulation. This observation implies that cell cycle dysregulation is not completely rescued by polarity signaling alone. […] Therefore, to assess whether EGF-driven asymmetric divisions could ameliorate the reduced generation of myogenic progenitors in mdx cultures, single EDL myofibers from mdx mice were cultured for 72 h and immunostained for the expression of Myog.
Characterization of Satellite Cell Divisions. The orientation of mitotic spindles in satellite cells was measured as described in Dumont et al. (2015). Single myofibers were fixed after 36 h of in vitro culture, as described above. Satellite cells were identified by Pax7 expression in the nucleus, as detected by immunofluorescene. Pax7 staining becomes cytoplasmic in mitotic satellite cells after the dissociation of the nuclear envelope, but is still discernable. […] Mitotic satellite cells with p-Aurk staining patterns that were not observed in WT cells, including monopolar, multipolar (>2), and abscission defects were quantified as abnormal. Mitotic orientations were manually counted according to the angle between the mitotic spindle and the tangential plane of the satellite cell's attachment point to the myofiber.

satellite cells = experiment: Mitotic orientation by p-Aurk centrosome staining, EDL myofibers 36 h; settings: 36 h culture, recombinant EGF vs vehicle, FIGS. 2B and 2C
Method: The inventors cultured single EDL myofibers for 36 h and satellite cell centrosomes were detected by immunostaining for phosphorylated aurora kinase (p-Aurk).
Characterization of Satellite Cell Divisions. The orientation of mitotic spindles in satellite cells was measured as described in Dumont et al. (2015). Single myofibers were fixed after 36 h of in vitro culture, as described above. Satellite cells were identified by Pax7 expression in the nucleus, as detected by immunofluorescene. Pax7 staining becomes cytoplasmic in mitotic satellite cells after the dissociation of the nuclear envelope, but is still discernable. Mitotic satellite cells were identified by positive p-Aurk staining, which labels cells from pro-metaphase to cytokinesis. Mitotic satellite cells with p-Aurk staining patterns that were not observed in WT cells, including monopolar, multipolar (>2), and abscission defects were quantified as abnormal. Mitotic orientations were manually counted according to the angle between the mitotic spindle and the tangential plane of the satellite cell's attachment point to the myofiber.

[1] = test system: phosphorylated EGFR (p-EGFR); experiment: p-EGFR immunostaining of mdx EDL myofibers; settings: 1 h with or without recombinant EGF 100 ng/mL, FIG. 3A
Method: Therefore, the inventors conclude that that EGFR signaling occurs normally in mdx satellite cells.
To assess the signaling status of EGFR in quiescent satellite cells, EDL muscles were fixed in 4% PFA immediately post-dissection. Myofiber bundles were teased from the fixed muscles by tweezers.
Immunostaining and Antibodies. EDL myofibers were fixed for 10 min in 2% PFA and washed with PBS. Fibers were blocked and permeablized in horse serum blocking buffer (5% horse serum, 1% BSA (Sigma), and 0.5% Triton X-100 (Sigma) in PBS) for 1 h at room temperature or at 4° C. over night. Primary antibodies were applied in blocking solution for 2 h at room temperature or at 4° C. over night. Samples were subsequently washed with PBS and stained with appropriate fluorescently labeled secondary antibodies (Alexa fluor 488, 546, or 647) for 1 h at room temperature. After washing with PBS, samples were mounted with Permafluor (Fisher).

| Compound | percentage of YFP(-) divisions that were symmetric divisions (satellite cell divisions) [%] | percentage of YFP(-) divisions that were asymmetric divisions (satellite cell divisions) [%] | numbers of apicobasal orientated mitotic centrosomes, mdx satellite cells (mdx satellite cells) | rate of abnormal cell divisions (abnormal patterns of p-Aurk staining), mdx satellite cells (mdx satellite cells) | increase in the proportion of mitotic cells aligned along the apicobasal axis (satellite cells) [%] | p-EGFR staining in mdx fibers [1] |
| --- | --- | --- | --- | --- | --- | --- |
| CCc1oc2cc(S(=O)(=O)Nc3ccc(S(=O)(=O)Nc4nccs4)cc3)ccc2c1C(=O)c1cc(Br)c(O)c(Br)c1 [PTP1b inhibitor, 3-(3,5-dibromo-4-hydroxy-benzoyl)-2-ethyl-benzofuran-6-sulfonicacid-(4-(thiazol-2-ylsulfamyl)-phenyl)-amide, reference compound] | 33 | 67 | – | – | – | – |
| EGF: human recombinant EGF protein (Life Technologies), direct activator of the EGFR pathway | 29 | 71 | increased numbers of apicobasal orientated mitotic centrosomes | unaffected | 50 | P-EGFR was only observed in mdx fibers treated with EGF |

Reference: patent publication US20230114123A1, “METHOD OF STIMULATING ASYMMETRIC DIVISION OF SATELLITE STEM CELLS” (Ottawa Hospital Research Institute, priority 2017, published 2023)
